US8637664B2, “Alkyl 4- [4- (5-oxo-2,3,5, 11a-tetrahydo-5H-pyrrolo [2, 1-c] [1,4] benzodiazepine-8-yloxy)-butyrylamino]-1H-pyrrole-2-carboxylate derivatives and related compounds for the treatment of a proliferative disease” (Spirogen SARL, priority 2005, dated 2014)
Where two headings read alike, the source gives them in different places. Marks after values point to notes of the source that are not given here.

Legend:
[1] = biological target: 262 bp DNA fragment (MS2F or MS2R) of MS2 plasmid; assay: DNase I footprinting on MS2 DNA fragment; type: binding
Description: The sequence selectivity of the six PBD-pyrrole conjugates (21, 23, 25, 27, 29) was evaluated by standard DNA footprinting on a fragment of MS2 as follows, in accordance with the technique described in Martin, C., et al., (Martin, C., et al., Biochemistry, 44(11), 4135-4147 (2005))
Forward (5′-[…]-3′) or reverse (5′-[…]-3′) primer was 5′-end labelled with ^32P by T4 polynucleotide kinase. Labelling mixture contained primer (5 pmol; Sigma-Genosys), 10× kinase buffer (1 μl; Promega), (γ-^32P)-ATP (2μ of 10 μCi/μl, 6000 Ci/mmol; Perkin Elmer Life Sciences), and T4 polynucleotide kinase (10 U; Promega) in a 10 μl final volume. Labelling mix was incubated at 37° C. for 30 minutes followed by inactivation of the kinase at 70° C. for 10 minutes. A 262 bp DNA fragment (MS2F or MS2R) was amplified from the MS2 plasmid using PCR with either labelled forward or reverse primer and the unlabelled primer as required. Reactions were comprised of labelled primer mix (10 μl), 10×PCR buffer (5 μl; Sigma), dNTPs (5 μl; 2.5 mM each of A, C, G and T, Amersham Pharmacia), unlabelled primer as required ([…]), MS2 plasmid template DNA (10 ng) and Taq DNA polymerase (5 U; Sigma) in a 50 μl final volume. Radiolabelled 262-mer was purified by non-denaturing polyacrylamide gel electrophoresis, elution, filtration and EtOH precipitation and was resuspended in a solution of Tris-HCl (10 mM) pH 7.4/NaCl (10 mM) to yield an activity of 200 counts per second per 5 μl when held up, in a pipette tip, to a capped Morgan series 900 mini-monitor.
For DNase I footprinting radiolabelled 262-mer (2 μl) was incubated overnight (16-18 h) with drug solution (388 μl) or in an aqueous buffer [HEPES (20 mM) pH 7.9, NaCl (50 mM), MgCl2 (1 mM), DTT (5 mM), 10% glycerol] in control reactions. Enzymatic cleavage was initiated by addition of DNase I solution (10 μl of 0.05 U/ml; Sigma) in aqueous NaCl (200 mM), MgCl2 (20 mM) and MnCl2 (20 mM) and halted with stop solution [40 μl of NaCl (2.25 M), EDTA (150 mM) pH 8.0, 0.57 μg/μl glycogen (0.57 μg/μl; Roche), poly(dl-dC).poly(dl-dC) DNA (19.3 ng/μl; Amersham Pharmacia)]. From this mixture, digested DNA fragments were prepared for electrophoresis following the protocol of Trauger & Dervan, and were loaded on to a preheated 8% denaturing polyacrylamide gel. Electrophoresis in 1×TBE buffer was allowed to proceed for 100 min at 70 W (1600-2000 V). The gel was the fixed in acetic acid (10% v/v) and methanol (10% v/v) for 15 minutes followed by being blotted onto Whatman 3 mM paper and vacuum-dried at 80° C. for 45 minutes.
Dried gels were stored at room temperature in phosphor storage screens (Molecular Dynamics) for a minimum period of 12 h. Data were collected from exposed screens using a Molecular Dynamics 425E Phosphorlmager and transferred to ImageQuant v1.2 software (Molecular Dynamics) for analysis. Data were expressed as the differential cleavage between control and sample lanes. Peaks were integrated and differential cleavage calculated as ln(fd)−ln(fc); (fd is the fractional cleavage at any particular bond in the presence of drug and fc is the fractional cleavage of the same bond in the control). Maxam-Gilbert G+A marker lanes were prepared in the usual fashion.
The vast majority of footprint sites are common features in the binding profiles of all six conjugates, with only a small number of sites being footprinted by a subset of the family. Even more unexpectedly, no site is footprinted by only one molecule (in fact, the fewest number of conjugates that bind at any single site is four). The differential cleavage plot provides footprinting profiles at a supramaximal concentration colour-coded for each conjugate which illustrates a striking degree of overlap. Although there is no conspicuous change in footprinting patterns as the number of pyrroles units in each conjugate increases, there are changes in two other features, namely, the apparent binding affinity and the width of the footprinted site. […]

[2] = tested on: K562 human chronic myeloid leukaemia cells; assay: In vitro cytotoxicity, MTT assay; type: cell-based; conditions: K562, 1 hour drug exposure, MTT after 4 days
Description: K562 human chronic myeloid leukaemia cells were maintained in RPM1 1640 medium supplemented with 10% fetal calf serum and 2 mM glutamine at 37° C. in a humidified atmosphere containing 5% CO2 and were incubated with a specified dose of drug for 1 hour at 37° C. in the dark. The incubation was terminated by centrifugation (5 min, 300 g) and the cells were washed once with drug-free medium. Following the appropriate drug treatment, the cells were transferred to 96-well microtiter plates (10^4 cells per well, 8 wells per sample). Plates were then kept in the dark at 37° C. in a humidified atmosphere containing 5% CO2. The assay is based on the ability of viable cells to reduce a yellow soluble tetrazolium salt, 3-(4,5-dimethylthiazol-2-yl)-2,5-diphenyl-2H-tetrazolium bromide (MTT, Aldrich-Sigma), to an insoluble purple formazan precipitate. Following incubation of the plates for 4 days (to allow control cells to increase in number by approximately 10 fold), 20 μL of MTT solution (5 mg/mL in phosphate-buffered saline) was added to each well and the plates further incubated for 5 hours. The plates were then centrifuged for 5 minutes at 300 g and the bulk of the medium pipetted from the cell pellet leaving 10-20 μL per well. DMSO (200 μL) was added to each well and the samples agitated to ensure complete mixing. The optical density was then read at a wavelength of 550 nm on a Titertek Multiscan ELISA plate reader, and a dose-response curve was constructed.

calf thymus DNA (CT-DNA) = assay: DNA thermal denaturation (melting) studies; type: binding; conditions: CT-DNA 100 μM DNAp, compound 20 μM, 37 °C; for Induced ΔTm after incubation 0 hours: pH 7.00, 0 hours; for Induced ΔTm after incubation 4 hours: pH 7.00, 4 hours; for Induced ΔTm after incubation 18 hours: pH 7.00, 18 hours; for Induced ΔTm after incubation 72 hours: pH 7.00, 72 hours
Description: The PBD agents were subjected to DNA thermal melting (denaturation) studies (Gregson, S. J., et al., Journal of Medicinal Chemistry, 44(5), 737-748 (2001); Jones, G. B., et al., Anti-Cancer Drug Design, 5(3), 249-264 (1990); McConnaughie, A. W. and; Jenkins, T. C. Journal of Medicinal Chemistry, 38(18), 3488-3501 (1995)) using calf thymus DNA (CT-DNA, type-1, highly polymerized sodium salt; 42% G+C [Sigma]) at a fixed 100 μM (DNAp=50 μM bp) concentration, determined using an extinction coefficient of 6600 (M phosphate)^−1 cm^−1 at 260 nm (Manzini, G., et al., Nucleic Acids Research, 11(24), 8861-8876 (1983)). Solutions were prepared in pH 7.00±0.01 aqueous buffer containing 10 mM NaH2PO4/Na2HPO4 and 1 mM EDTA. Working solutions containing CT-DNA and the test compound (20 μM) were incubated at 37.0±0.1° C. for 0 to 18 hours using an external water bath. Samples were monitored at 260 nm using a Varian-Cary 400 Bio spectrophotometer fitted with a Peltier heating accessory. Heating was applied at a rate of 1° C./min in the 45 to 98° C. temperature range, with optical and temperature data sampling at 200 ms intervals. A separate experiment was carried out using buffer alone, and this baseline was subtracted from each DNA melting curve before data treatment. Optical data were imported into the Origin 5 program (MicroCal Inc., Northampton, Mass.) for analysis. DNA helix→coil transition temperatures (Tm) were determined at the midpoint of the normalized melting profiles using a published analytical procedure (Jones, G. B., et al., Anti-Cancer Drug Design, 5(3), 249-264 (1990)). Results are given in table 1 as the mean±standard deviation from at least three determinations. Ligand-induced alterations in DNA melting behaviour (ΔTm) are given by ΔTm=Tm(DNA+ligand)−Tm(DNA), where the Tm value determined for free CT-DNA is 67.82±0.06° C. (averaged from >90 runs). All PBD compounds were dissolved in HPLC-grade MeOH to give working solutions containing ≦0.6% v/v MeOH; Tm results were corrected for the effects of MeOH co-solvent by using a linear correction term.
The above method was also carried out on the compounds of example 2, with all compounds being incubated for up to 72 hours.

[3] = tested on: NF-Y binding at ICB1 of Topoisomerase IIα promoter; assay: NF-Y gel shift assay (EMSA) at ICB1
[4] = tested on: NF-Y binding at ICB2 of Topoisomerase IIα promoter; assay: NF-Y gel shift assay (EMSA) at ICB2
[5] = tested on: 170 bp sequence of the human Topo-IIa promoter; assay: DNase I footprinting on Topo-IIa promoter (ICB1, ICB2 sites); type: binding; conditions: for Concentration at which DNA binding is observed, ICB1: ICB1 site; for Concentration at which DNA binding is observed, ICB2: ICB2 site
Description: In a similar manner to Example 4, the affinity and sequence selectivity of certain compounds of examples 1 and 2 was evaluated by standard DNA footprinting on a 170 bp sequence of the human Topo-IIa promoter, in accordance with the technique described in Martin, C., et al.
Selected results are shown in FIG. 9, wherein the concentrations of the lanes were 0, 1.6, 8, 40, 200, 1000, 5000 and 25000 nM in each case.
The footprinting results allowed the identification of compounds that could potentially disrupt transcription factor binding at the ICB1 and ICB2 sites. […] These compounds are detailed below in table 3, showing the concentrations (μM) at which the PBD-heterocycle conjugates bind at ICB1 and ICB2.

[6] = read-out: DNase IC50 (apparent binding affinity; 50% inhibition of DNase I-mediated cleavage), estimated by eye, site 5′-62CAATACACA70-3′

## COC(=O)c1cc(NC(=O)CCCOc2cc3c(cc2OC)C(=O)N2CCC[C@H]2C=N3)cn1C [Compound 21, (11aS) Methyl 4-[4-(7-methoxy-5-oxo-2,3,5,11a-tetrahydro-5H-pyrrolo[2,1-c][1,4]benzodiazepine-8-yloxy)-butyrylamino]-1-methyl-1H-pyrrole-2-carboxylate]
[1]; estimated by eye from footprint gel, read-out: DNase IC50 (apparent binding affinity)
  IC50: ≥ 10 µM
[2]; Homo sapiens
  IC50: 0.051 µM
Calf thymus DNA (CT-DNA)
  Induced ΔTm after incubation 0 hours: 6.5 °C
  Induced ΔTm after incubation 4 hours: 7.9 °C
  Induced ΔTm after incubation 18 hours: 8.1 °C

## COC(=O)c1cc(NC(=O)c2cc(NC(=O)c3cc(NC(=O)CCCOc4cc5c(cc4OC)C(=O)N4CCC[C@H]4C=N5)cn3C)cn2C)cn1C [Compound 25, (11aS) Methyl 4-{[4-({4-[4-(7-Methoxy-6-oxo-2,3,5,11a-tetrahydro-5H-pyrrolo[2,1-c][1,4]benzodiazepine-8-yloxy)-butyrylamino]-1-methyl-1H-pyrrole-2-carbonyl]-amino)-1-methyl-1H-pyrrole-2-carbonyl]-amino}-1-methyl-1H-pyrrole-2-carboxylate]
[1]; [6]
  IC50: 0.03 to 0.1 µM
[2]
  IC50: 0.041 µM
Calf thymus DNA (CT-DNA)
  Induced ΔTm after incubation 0 hours: 17.3 °C
  Induced ΔTm after incubation 4 hours: 19.6 °C
  Induced ΔTm after incubation 18 hours: 21.2 °C

## COC(=O)c1cc(NC(=O)c2cc(NC(=O)c3cc(NC(=O)c4cc(NC(=O)CCCOc5cc6c(cc5OC)C(=O)N5CCC[C@H]5C=N6)cn4C)cn3C)cn2C)cn1C [Compound 27, (11aS) Methyl 4-[(4-{[4-({4-[4-(7-Methoxy-5-oxo-2,3,5,11a-tetrahydro-5H-pyrrolo[2,1-c][1,4]benzodiazepine-8-yloxy)-butyrylamino]-1-methyl-1H-pyrrole-2-carbonyl]-amino)-1-methyl-1H-pyrrole-2-carbonyl]-amino}-1-methyl-1H-pyrrole-2-carbonyl)-amino]-1-methyl-1H-pyrrole-2-carboxylate]
[1]; [6]
  IC50: ~0.03 µM
[2]
  IC50: 0.047 µM
Calf thymus DNA (CT-DNA)
  Induced ΔTm after incubation 0 hours: 16.0 °C
  Induced ΔTm after incubation 4 hours: 18.5 °C
  Induced ΔTm after incubation 18 hours: 19.0^y ° C.

## COC(=O)c1cc(NC(=O)c2cc(NC(=O)c3nc(NC(=O)CCCOc4cc5c(cc4OC)C(=O)N4CCC[C@H]4C=N5)cn3C)cn2C)cn1C [Compound 67]
[3]
  Lowest concentration at which NF-Y binding inhibition was observed: 50 µM
[4]
  Lowest concentration at which NF-Y binding inhibition was observed: 5 µM
Calf thymus DNA (CT-DNA)
  Induced ΔTm after incubation 0 hours: 19.1 °C
  Induced ΔTm after incubation 4 hours: 19.8 °C
  Induced ΔTm after incubation 18 hours: 21.1 °C
  Induced ΔTm after incubation 72 hours: 21.6 °C
[5]
  Concentration at which DNA binding is observed, ICB1: 5 µM
  Concentration at which DNA binding is observed, ICB2: 1 µM

## COC(=O)c1cc(NC(=O)c2cc(NC(=O)c3csc(NC(=O)CCCOc4cc5c(cc4OC)C(=O)N4CCC[C@H]4C=N5)n3)cn2C)cn1C [Compound 69]
[3]
  Lowest concentration at which NF-Y binding inhibition was observed: 50 µM
[4]
  Lowest concentration at which NF-Y binding inhibition was observed: 10 µM
Calf thymus DNA (CT-DNA)
  Induced ΔTm after incubation 0 hours: 16.4 °C
  Induced ΔTm after incubation 4 hours: 17.4 °C
  Induced ΔTm after incubation 18 hours: 18.2 °C
  Induced ΔTm after incubation 72 hours: 18.5 °C
[5]
  Concentration at which DNA binding is observed, ICB1: 5 µM
  Concentration at which DNA binding is observed, ICB2: 5 µM
